This passage reports IC50 results from PMC6274455, “Isolation of α-Amylase Inhibitors from Kadsura longipedunculata Using a High-Speed Counter-Current Chromatography Target Guided by Centrifugal Ultrafiltration with LC-MS” (Molecules, 2016).

The IC50 is the midpoint of a concentration-inhibition curve.

Structures are written as SMILES. Read-outs that look alike come from different tables or passages of the source.

The target of this assay is T1, α-amylase (Sus scrofa, UniProt P00690).
T1 construct: gene AMY2
T1 sequence (P00690 16-511): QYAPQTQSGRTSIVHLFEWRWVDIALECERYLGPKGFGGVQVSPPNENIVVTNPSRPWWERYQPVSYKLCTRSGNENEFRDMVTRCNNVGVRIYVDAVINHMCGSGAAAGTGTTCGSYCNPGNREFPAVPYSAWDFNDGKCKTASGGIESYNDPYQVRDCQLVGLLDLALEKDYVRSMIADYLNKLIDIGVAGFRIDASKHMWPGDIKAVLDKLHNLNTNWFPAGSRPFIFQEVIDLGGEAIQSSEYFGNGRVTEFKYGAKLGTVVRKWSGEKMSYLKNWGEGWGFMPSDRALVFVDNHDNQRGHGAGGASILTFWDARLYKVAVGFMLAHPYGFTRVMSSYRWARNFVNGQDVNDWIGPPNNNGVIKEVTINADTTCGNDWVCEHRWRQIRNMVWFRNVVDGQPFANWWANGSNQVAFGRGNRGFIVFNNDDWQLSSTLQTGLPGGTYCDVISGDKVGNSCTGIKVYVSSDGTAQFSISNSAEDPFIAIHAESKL
Kind of assay: α-amylase inhibition assay of isolated compound; also captured by centrifugal ultrafiltration LC-MS with active but not denatured enzyme. Type of assay: biochemical.

Take `O=C(O)c1ccc(O)c(O)c1` [compound 2, protocatechuic acid]: the IC50 (read-out: IC50) was 12.5 µM.
In turn, `C[C@@H]1O[C@@H](Oc2c(-c3ccc(O)c(O)c3)oc3cc(O)cc(O)c3c2=O)[C@H](O)[C@H](O)[C@H]1O` [compound 1, quercetin-3-O-rhamnoside] displayed an IC50 of 28.8 µM.
